Columns and labels:
human cathepsin K = human cathepsin K (UniProt P43236, Y175D/V274L, species not given); test: Cathepsin K Assay; format: biochemical; settings: IP from dose response curve; Z-Leu-Arg-AMC substrate, pH 5.5; read-out: hrbCat K (IP (nM))
human cathepsin F = biological target: T1, human cathepsin F (Homo sapiens, UniProt Q9UBX1); test: Cathepsin F Assay; format: biochemical; settings: IP from dose response curve; Z-Phe-Arg-AMC substrate, pH 5.5; read-out: hCat F (IP (nM))
T1 sequence (Q9UBX1 271-484): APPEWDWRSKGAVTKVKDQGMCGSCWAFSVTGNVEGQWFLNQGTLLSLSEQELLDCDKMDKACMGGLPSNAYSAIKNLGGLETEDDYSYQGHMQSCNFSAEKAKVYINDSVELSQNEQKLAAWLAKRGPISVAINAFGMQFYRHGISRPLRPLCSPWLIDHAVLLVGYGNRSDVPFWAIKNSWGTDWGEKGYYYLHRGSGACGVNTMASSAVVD
In short: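 Human cathepsin F (10 nM) preincubated 15 min at room temperature with compounds in 50 mM MES pH 5.5, 2.5 mM EDTA, 2.5 mM DTT, 10% DMSO. Z-Phe-Arg-AMC (8 μM) added; AMC release read by fluorescence (Ex 360/Em 460 nm) over 20 min, inhibition fit to dose-response model.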

SMILES	IC50 (human cathepsin K)	IC50 (human cathepsin F)
N#CC1(NC(=O)[C@@H]2CCC(F)(F)C[C@H]2c2nn(-c3ccc(F)cc3)cc2-c2ccc(N3CCS(=O)(=O)CC3)cc2)CC1 [Example 108, (1R,2R)-N-(1-cyanocyclopropyl)-2-(4-(4-(1,1-dioxidothiomorpholino)phen-yl)-1-(4-fluorophenyl)-1H-pyrazol-3-yl)-4,4-difluorocyclohexanecarbox-amide]	2.32 nM	1010 nM
N#CC1(NC(=O)[C@@H]2CCCC[C@H]2c2nn(-c3ccc(C(O)(C(F)(F)F)C(F)(F)F)cc3)cc2-c2ccc(N3CCS(=O)(=O)CC3)cc2)CC1 [Example 109, (1R,2R)-N-(1-cyanocyclopropyl)-2-(4-(4-(1,1-dioxidothiomorpholino)phen-yl)-1-(4-(1,1,1,3,3,3-hexafluoro-2-hydroxypropan-2-yl)phenyl)-1H-pyrazol-3-yl)cyclohexanecarboxamide]	2.67 nM	267 nM
N#Cc1cc(-n2cc(-c3ccc(N4CCS(=O)(=O)CC4)cc3)c([C@@H]3CCCC[C@H]3C(=O)NC3(C#N)CC3)n2)ccc1F [Example 110, (1R,2R)-2-(1-(3-cyano-4-fluorophenyl)-4-(4-(1,1-dioxidothiomorpholino)phen-yl)-1H-pyrazol-3-yl)-N-(1-cyanocyclopropyl)cyclohex-anecarboxamide]	0.83 nM	275 nM
N#CC1(NC(=O)[C@@H]2CCCC[C@H]2c2nn(-c3ccc(OC(F)F)cc3)cc2-c2ccc(N3CCS(=O)(=O)CC3)cc2)CC1 [Example 111, (1R,2R)-N-(1-cyanocyclopropyl)-2-(1-(4-(difluoromethoxy)phenyl)-4-(4-(1,1-dioxidothiomorpholino)phen-yl)-1H-pyrazol-3-yl)cyclohexanecarboxamide]	0.86 nM	392 nM
N#CC1(NC(=O)[C@@H]2C[C@@H](F)CC[C@H]2c2nn(-c3ccc(F)cc3)cc2-c2ccc(N3CCS(=O)(=O)CC3)cc2)CC1 [Example 112, (1R,2R,5S)-N-(1-cyanocyclopropyl)-2-(4-(4-(1,1-dioxidothiomorpholino)phen-yl)-1-(4-fluorophenyl)-1H-pyrazol-3-yl)-5-fluorocyclohexanecarboxamide]	1.33 nM	922 nM
N#CC1(NC(=O)[C@@H]2CCCC[C@H]2c2nn(-c3cc(F)ccc3F)cc2-c2ccc(N3CCS(=O)(=O)CC3)cc2)CC1 [Example 114, (1R,2R)-N-(1-cyanocyclopropyl)-2-(1-(2,5-difluorophenyl)-4-(4-(1,1-dioxidothiomorpholino)phen-yl)-1H-pyrazol-3-yl)cyclohexanecarboxamide]	1.06 nM	633 nM
N#CC1(F)CCN(c2ccc(-c3cn(-c4ccc(F)cc4)nc3[C@@H]3CCCC[C@H]3C(=O)NC3(C#N)CC3)cc2)CC1 [Example 115, (1R,2R)-2-(4-(4-(4-cyano-4-fluoropiperidin-1-yl)phenyl)-1-(4-fluorophenyl)-1H-pyrazol-3-yl)-N-(1-cyanocyclopropyl)cyclohex-anecarboxamide]	6.62 nM	804 nM
CC1(C)CCC(C(=O)NC2(C#N)CC2)C(c2nn(-c3ccc(F)cc3)cc2-c2ccc(N3CCS(=O)(=O)CC3)cc2)C1 [Example 117, (1S,2S, or 1R,2R)-N-(1-cyanocyclopropyl)-2-(4-(4-(1,1-dioxidothiomorpholino)phen-yl)-1-(4-fluorophenyl)-1H-pyrazol-3-yl)-4,4-dimethylcyclohexanecarbox-amide]	13.9 nM	1570 nM
N#CC1(NC(=O)[C@@H]2CCCC[C@H]2c2nn(-c3cc(F)cc(F)c3)cc2-c2ccc(N3CCS(=O)(=O)CC3)cc2)CC1 [Example 118, (1R,2R)-N-(1-cyanocyclopropyl)-2-(1-(3,5-difluorophenyl)-4-(4-(1,1-dioxidothiomorpholino)phen-yl)-1H-pyrazol-3-yl)cyclohexanecarboxamide]	0.54 nM	273 nM
N#CC1(NC(=O)[C@@H]2CCCC[C@H]2c2nn(-c3ccc(OC(F)(F)F)cc3)cc2-c2ccc(N3CCS(=O)(=O)CC3)cc2)CC1 [Example 119, (1R,2R)-N-(1-cyanocyclopropyl)-2-(4-(4-(1,1-dioxidothiomorpholino)phen-yl)-1-(4-(trifluoromethoxy)phenyl)-1H-pyrazol-3-yl)cyclohexanecarboxamide]	1.8 nM	562 nM
N#CC1(NC(=O)[C@@H]2CCCC[C@H]2c2nn(-c3ccccc3C(F)(F)F)cc2-c2ccc(N3CCS(=O)(=O)CC3)cc2)CC1 [Example 120, (1R,2R)-N-(1-cyanocyclopropyl)-2-(4-(4-(1,1-dioxidothiomorpholino)phen-yl)-1-(2-(trifluoromethyl)phenyl)-1H-pyrazol-3-yl)cyclohexanecarboxamide]	6.72 nM	3120 nM
N#CC1(NC(=O)[C@@H]2CCCC[C@H]2c2nn(-c3ccc(C(F)(F)F)cc3)cc2-c2ccc(N3CCS(=O)(=O)CC3)cc2)CC1 [Example 121, (1R,2R)-N-(1-cyanocyclopropyl)-2-(4-(4-(1,1-dioxidothiomorpholino)phen-yl)-1-(4-(trifluoromethyl)phenyl)-1H-pyrazol-3-yl)cyclohexanecarboxamide]	3.08 nM	649 nM
N#CC1(NC(=O)[C@@H]2CCCC[C@H]2c2nn(-c3cccc(OC(F)(F)F)c3)cc2-c2ccc(N3CCS(=O)(=O)CC3)cc2)CC1 [Example 122, (1R,2R)-N-(1-cyanocyclopropyl)-2-(4-(4-(1,1-dioxidothiomorpholino)phen-yl)-1-(3-(trifluoromethoxy)phenyl)-1H-pyrazol-3-yl)cyclohexanecarboxamide]	0.78 nM	466 nM
N#CC1(NC(=O)[C@@H]2CCCC[C@H]2c2nn(-c3ccc(-n4cccn4)cc3)cc2-c2ccc(N3CCS(=O)(=O)CC3)cc2)CC1 [Example 123, (1R,2R)-2-(1-(4-(1H-pyrazol-1-yl)phenyl)-4-(4-(1,1-dioxidothiomorpholino)phen-yl)-1H-pyrazol-3-yl)-N-(1-cyanocyclopropyl)cyclohex-anecarboxamide]	0.96 nM	593 nM
N#CC1(NC(=O)[C@@H]2CCCC[C@H]2c2nn(-c3cccc(C(F)(F)F)c3)cc2-c2ccc(N3CCS(=O)(=O)CC3)cc2)CC1 [Example 124, (1R,2R)-N-(1-cyanocyclopropyl)-2-(4-(4-(1,1-dioxidothiomorpholino)phen-yl)-1-(3-(trifluoromethyl)phenyl)-1H-pyrazol-3-yl)cyclohexanecarboxamide]	1.58 nM	588 nM
N#CC1(NC(=O)[C@@H]2CCCC[C@H]2c2nn(-c3ccccc3OC(F)(F)F)cc2-c2ccc(N3CCS(=O)(=O)CC3)cc2)CC1 [Example 125, (1R,2R)-N-(1-cyanocyclopropyl)-2-(4-(4-(1,1-dioxidothiomorpholino)phen-yl)-1-(2-(trifluoromethoxy)phenyl)-1H-pyrazol-3-yl)cyclohexanecarboxamide]	2.18 nM	836 nM
N#CC1(NC(=O)[C@@H]2CCCC[C@H]2c2nn(-c3cc(F)c(F)c(F)c3)cc2-c2ccc(N3CCS(=O)(=O)CC3)cc2)CC1 [Example 128, (1R,2R)-N-(1-cyanocyclopropyl)-2-(4-(4-(1,1-dioxidothiomorpholino)phen-yl)-1-(3,4,5-trifluorophenyl)-1H-pyrazol-3-yl)cyclohexanecarboxamide]	0.79 nM	319 nM
N#CC1(NC(=O)[C@@H]2CCCC[C@H]2c2nn(-c3ccc(F)cc3)cc2-c2ccc(N3CCS(=N)(=O)CC3)cc2)CC1 [Example 129, (1R,2R)-N-(1-cyanocyclopropyl)-2-(1-(4-fluorophenyl)-4-(4-(1-imino-1-oxidothiomorpholino)phenyl)-1H-pyrazol-3-yl)cyclohexanecarboxamide]	1.84 nM	932 nM
CN=S1(=O)CCN(c2ccc(-c3cn(-c4ccc(F)cc4)nc3[C@@H]3CCCC[C@H]3C(=O)NC3(C#N)CC3)cc2)CC1 [Example 130, (1R,2R)-N-(1-cyanocyclopropyl)-2-(1-(4-fluorophenyl)-4-(4-(1-(methylimino)-1-oxidothiomorpholino)phenyl)-1H-pyrazol-3-yl)cyclohexanecarboxamide]	1.92 nM	854 nM
N#CC1(NC(=O)[C@@H]2CCCC[C@H]2c2nn(-c3ccc(F)cc3F)cc2-c2ccc(N3CCS(=O)(=O)CC3)cc2)CC1 [Example 131, (1R,2R)-N-(1-cyanocyclopropyl)-2-(1-(2,4-difluorophenyl)-4-(4-(1,1-dioxidothiomorpholino)phen-yl)-1H-pyrazol-3-yl)cyclohexanecarboxamide]	2.49 nM	1540 nM
N#Cc1ccc(-n2cc(-c3ccc(N4CCS(=O)(=O)CC4)cc3)c([C@@H]3CCCC[C@H]3C(=O)NC3(C#N)CC3)n2)c(F)c1 [Example 132, (1R,2R)-2-(1-(4-cyano-2-fluorophenyl)-4-(4-(1,1-dioxidothiomorpholino)phen-yl)-1H-pyrazol-3-yl)-N-(1-cyanocyclopropyl)cyclohex-anecarboxamide]	2.51 nM	733 nM
N#CC1(NC(=O)[C@@H]2CCCC[C@H]2c2nn(-c3c(F)cccc3F)cc2-c2ccc(N3CCS(=O)(=O)CC3)cc2)CC1 [Example 133, (1R,2R)-N-(1-cyanocyclopropyl)-2-(1-(2,6-difluorophenyl)-4-(4-(1,1-dioxidothiomorpholino)phen-yl)-1H-pyrazol-3-yl)cyclohexanecarboxamide]	3.56 nM	2340 nM
